# According to patent US20120245344A1 (NIPPON CHEMIPHAR CO., LTD., priority 2009, published 2012):
# Target: T1, human GPR119 (Homo sapiens, UniProt Q8TDV5)
# T1 construct: expressed in transfected cells; host or cells: Flp-in T-Rex-293 cells (Invitrogen #R78007), plasmid pcDNA5/FRT/TO, expression induced with tetracycline
# T1 sequence (Q8TDV5 1-335): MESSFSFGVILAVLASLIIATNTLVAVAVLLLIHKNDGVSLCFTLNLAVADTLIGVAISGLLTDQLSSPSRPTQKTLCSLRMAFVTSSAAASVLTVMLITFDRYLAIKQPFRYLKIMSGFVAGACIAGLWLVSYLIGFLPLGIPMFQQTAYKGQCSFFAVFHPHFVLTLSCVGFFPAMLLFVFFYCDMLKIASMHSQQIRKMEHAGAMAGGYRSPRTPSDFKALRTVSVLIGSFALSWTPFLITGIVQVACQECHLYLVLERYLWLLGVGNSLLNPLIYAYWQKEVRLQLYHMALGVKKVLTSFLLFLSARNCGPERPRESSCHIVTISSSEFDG
# Experiment: Measurement of intracellular cAMP in stable cell line expressing human GPR119 (GPR119 agonist effect)
# Format: cell-based
# Conditions: increase of intracellular cAMP, Flp-in T-Rex-293 cells expressing human GPR119, 37° C. for 30 minutes
# From the text: The GPR119 agonist effect is studied by measuring the effect of an analyte on increase of intracellular amount of cAMP in human GPR119 introduced cells. The testing method is described below.
# Human GPR119 gene (NM 178471) is purchased from ATCC (ATCC No. 10807349), and is amplyfied according to PCR to form BamHI site at 5′ side and Apa I site at 3′ side. The primers are […] (sequence No. 1) and […] (sequence No. 2). The PCR conditions are described below.
# The double-stranded DNA is thermally denatured using a DNA polymerase (KOD-Plus-Ver. 2; TOYOBO #KOD-211) at 98° C. for 10 seconds in one cycle. The denatured single-stranded DNA is annealed with the primers at 55° C. for 30 seconds. The DNA is subjected to an extension reaction at 68° C. for 1 minute and 15 seconds. The above-mentioned steps are repeated in 35 cycles. The PCR product is inserted into pcDNA5/FRT/TO (Invitrogen #V6520-20) plasmid. Flp-in T-Rex-293 cells (Invitorogen #R78007) are transfected with the obtained plasmid. The method of transfection is conducted in accordance with the protocol of the product.
# (§1) The stable cell line expressing human GPR119 prepared in the above-mentioned method is plated on a 96-well plate at the concentration of 2,500 cells/well using Dulbecco's Modified Eagle Medium (DMEM) containing 10% fetal bovine serum (FBS). Twenty-four hours after plating, tetracyclin (Invitrogen #Q10019) is added at the final concentration of 20 ng/mL to induce hGPR119 gene expression. Twenty-four hours after, the medium is removed, and the cells are stimulated with an assay buffer (0.5 mM IBMX PBS (−)) containing the test compound at 37° C. for 30 minutes. The amount of the intracellular cAMP is measured using a commercially available kit (HitHunter™ cAMP XS+Assay: GE Healthcare #90007503) and a reader (FLUOstar Optima: BMG LABTECH). The test compound is dissolved in 100% DMSO, and added at the final concentration of 1%.
# Human GPR119 gene (NM 178471) was purchased from ATCC (ATCC No. 10807349), and is amplyfied according to PCR to form BamHI site at 5′ side and Apa I site at 3′ side. The primers were […] (sequence No. 1) and […] (sequence No. 2). The PCR conditions are described below. The double-stranded DNA was thermally denatured using a DNA polymerase (KOD-Plus-Ver. 2; TOYOBO #KOD-211) at 98° C. for 10 seconds in one cycle. The denatured single-stranded DNA was annealed with the primers at 55° C. for 30 seconds. The DNA was subjected to an extension reaction at 68° C. for 1 minute and 15 seconds. The above-mentioned steps were repeated in 35 cycles. The PCR product was inserted into pcDNA5/FRT/TO (Invitrogen #V6520-20) plasmid. Flp-in T-Rex-293 cells (Invitorogen #R78007) were transfected with the obtained plasmid. The method of transfection was conducted in accordance with the protocol of the product.
# as §1, with “method was” for “method is”, “#Q10019) was” for “#Q10019) is”, “medium was” for “medium is”, “cells were” for “cells are”, “cAMP was” for “cAMP is”, “compound was” for “compound is”
# The examination was performed by the method similar to Example 87 Pharmacological experiment 1-(1), -(2).
row,Compound,EC50 [nM]
1,"Cc1cc(C2CCN(C(=O)OC(C)(C)C)CC2)cnc1Cn1ccc2cc(S(C)(=O)=O)ccc21 [Example 5, tert-Butyl 4-[2-(5-methanesulfonylindol-1-ylmethyl)-3-methylpyridin-5-yl]piperidine-1-carboxylate]",31.6
2,"CC(C)(C)OC(=O)N1CCC(c2ccc(-c3cc4cc(S(C)(=O)=O)ccc4o3)nc2)CC1 [Example 9, tert-Butyl 4-[2-(5-methanesulfonylbenzofuran-2-yl)pyridin-5-yl]piperidine-1-carboxylate]",420
3,"CC(C)(C)OC(=O)N1CCC(c2cnc(Cn3ccc4cc(S(C)(=O)=O)ccc43)c(F)c2)CC1 [Example 13, tert-Butyl 4-[3-fluoro-2-(5-methanesulfonylindol-1-ylmethyl)pyridin-5-yl]piperidine-1-carboxylate]",36.3
4,"CC(C)c1nc(N2CCC(c3ccc(Cn4ccc5cc(S(C)(=O)=O)ccc54)nc3)CC2)no1 [Example 16, 5-Isopropyl-3-[4-[2-(5-methanesulfonylindol-1-ylmethyl)pyridin-5-yl]piperidin-1-yl]-[1,2,4]oxadiazole]",49.1
5,"CC(C)(C)OC(=O)N1CCC(c2ccc(Cn3ccc4cc(S(C)(=O)=O)cc(N)c43)nc2)CC1 [Example 19, tert-Butyl 4-[2-(7-amino-5-methanesulfonylindol-1-ylmethyl)pyridin-5-yl]piperidine-1-carboxylate]",181
6,"CC(C)(C)OC(=O)N1CCC(c2ccc(Cn3ncc4cc(S(C)(=O)=O)ccc43)nc2)CC1 [Example 21, tert-Butyl 4-[2-(5-methanesulfonylindazol-1-ylmethyl)pyridin-5-yl]piperidine-1-carboxylate]",428
7,"CC(C)(C)OC(=O)N1CCC(c2ccc(Cn3cc4cc(S(C)(=O)=O)ccc4n3)nc2)CC1 [Example 22, tert-Butyl 4-[2-(5-methanesulfonylindazol-2-ylmethyl)pyridin-5-yl]piperidine-1-carboxylate]",458
8,"CC(C)(C)OC(=O)N1CCC(c2ccc(Cn3ccc4c(F)c(S(C)(=O)=O)ccc43)nc2)CC1 [Example 23, tert-Butyl 4-[2-(4-fluoro-5-methanesulfonylindol-1-ylmethyl)pyridin-5-yl]piperidine-1-carboxylate]",51.3
9,"Cc1cc(S(C)(=O)=O)cc2ccn(Cc3ccc(C4CCN(C(=O)OC(C)(C)C)CC4)cn3)c12 [Example 26, tert-Butyl 4-[2-(5-methanesulfonyl-7-methylindol-1-ylmethyl)pyridin-5-yl]piperidine-1-carboxylate]",59.3
10,"Cc1nc(S(C)(=O)=O)cc2ccn(Cc3ccc(C4CCN(C(=O)OC(C)(C)C)CC4)cn3)c12 [Example 28, tert-Butyl 4-[2-(5-methanesulfonyl-7-methyl-1H-pyrrolo[2,3-c]pyridin-1-ylmethyl)pyridin-5-yl]piperidine-1-carboxylate]",82.1
11,"CC(C)(C)OC(=O)N1CCC(c2ccc(Cn3ccc4cc(S(C)(=O)=O)ncc43)nc2)CC1 [Example 29, tert-Butyl 4-[2-(5-methanesulfonyl-1H-pyrrolo[2,3-c]pyridin-1-ylmethyl)pyridin-5-yl]piperidine-1-carboxylate]",39
12,"CC(C)(C)OC(=O)N1CCC(c2ccc(Cn3ccc4cc(S(C)(=O)=O)c(Cl)cc43)nc2)CC1 [Example 31, tert-Butyl 4-[2-(6-chloro-5-methanesulfonylindol-1-ylmethyl)pyridin-5-yl]piperidine-1-carboxylate]",41.1
13,"CCc1cnc(N2CCC(c3ccc(Cn4ccc5cc(S(C)(=O)=O)c(F)cc54)nc3)CC2)nc1 [Example 32, 5-Ethyl-2-[4-[2-(6-fluoro-5-methanesulfonylindol-1-ylmethyl)pyridin-5-yl]piperidin-1-yl]pyrimidine]",52

# Molecules with a lower EC50, results first:
row,EC50 [nM],Compound
1,21.4,"CC(C)(C)OC(=O)N1CCC(c2ccc(Cn3ccc4cc(S(C)(=O)=O)cc(F)c43)nc2)CC1 [Example 11, tert-Butyl 4-[2-(7-fluoro-5-methanesulfonylindol-1-ylmethyl)pyridin-5-yl]piperidine-1-carboxylate]"
2,9.5,"CC(C)(C)OC(=O)N1CCC(c2cnc(Cn3ccc4cc(S(C)(=O)=O)ccc43)c(Cl)c2)CC1 [Example 14, tert-Butyl 4-[3-chloro-2-(5-methanesulfonylindol-1-ylmethyl)pyridin-5-yl]piperidine-1-carboxylate]"
3,30.4,"CC(C)(C)OC(=O)N1CCC(c2ccc(Cn3ccc4cc(S(C)(=O)=O)cnc43)nc2)CC1 [Example 17, tert-Butyl 4-[2-(5-methanesulfonyl-1H-pyrrolo[2,3-b]pyridin-1-ylmethyl)pyridin-5-yl]piperidine-1-carboxylate]"
4,25.6,"CC(C)(C)OC(=O)N1CCC(c2ccc(Cn3ccc4cc(S(C)(=O)=O)cc([N+](=O)[O-])c43)nc2)CC1 [Example 18, tert-Butyl 4-[2-(5-methanesulfonyl-7-nitroindol-1-ylmethyl)pyridin-5-yl]piperidine-1-carboxylate]"
5,18.5,"CC(C)(C)OC(=O)N1CCC(c2ccc(Cn3ccc4cc(-n5cnnn5)ccc43)nc2)CC1 [Example 20, tert-Butyl 4-[2-[5-(tetrazol-1-yl)indol-1-ylmethyl]pyridin-5-yl]piperidine-1-carboxylate]"
6,20.2,"CC(C)(C)OC(=O)N1CCC(c2ccc(CN3CCc4cc(S(C)(=O)=O)cc(F)c43)nc2)CC1 [Example 25, tert-Butyl 4-[2-(7-fluoro-5-methanesulfonylindolin-1-ylmethyl)pyridin-5-yl]piperidine-1-carboxylate]"
7,13.9,"CC(C)(C)OC(=O)N1CCC(c2ccc(Cn3ccc4cc(S(C)(=O)=O)cc(Cl)c43)nc2)CC1 [Example 27, tert-Butyl 4-[2-(7-chloro-5-methanesulfonylindol-1-ylmethyl)pyridin-5-yl]piperidine-1-carboxylate]"
8,11.7,"CCc1cnc(N2CCC(c3ccc(Cn4ccc5cc(S(C)(=O)=O)ccc54)nc3)CC2)nc1 [Example 30, 5-Ethyl-2-[4-[2-(5-methanesulfonylindol-1-ylmethyl)pyridin-5-yl]piperidin-1-yl]pyrimidine]"
9,15.5,"CCc1cnc(N2CCC(c3ccc(Cn4ccc5cc(-n6cnnn6)ccc54)nc3)CC2)nc1 [Example 33, 5-Ethyl-2-[4-[2-[5-(tetrazol-1-yl)indol-1-ylmethyl]pyridin-5-yl]piperidin-1-yl]pyrimidine]"
10,30.4,"CCc1cnc(N2CCC(c3ccc(Cn4ccc5cc(S(C)(=O)=O)cc(F)c54)nc3)CC2)nc1 [Example 34, 5-Ethyl-2-[4-[2-(7-fluoro-5-methanesulfonylindol-1-ylmethyl)pyridin-5-yl]piperidin-1-yl]pyrimidine]"
